In patent US8703723B2, “Glycoside compounds and pharmaceutical compositions thereof” (Centrose, LLC, priority 2009, dated 2014):
pIC50: −log10 of the molar value. Read-outs that look alike come from different tables or passages of the source.

Assays:
H1299 (NSCLC) cell line = assay: Cancer cell cytotoxicity assay (Calcein AM / Cell Titer-Glo), H1299; format: cell-based, human; details: NSCLC
Experimental: (§1) Compounds of the invention and comparative compounds were assayed in three cancer cell lines to confirm cytotoxic activity and to set a range of concentrations to use in subsequent assays. All cell lines were maintained in RPMI medium 1640 supplemented with 10% (wt/vol) fetal bovine serum and penicillin-streptomycin (100 units/ml and 100 μg/ml). Cells were routinely checked for microbial or mycoplasma contamination and if necessary replaced. Cells were harvested by trypsinization using 0.25% trypsin and 0.1% EDTA and then counted in a ViCell XR coulter counter in duplicate, before and after dilution for assay plating. Between four to nine different types of human cancer cells were plated at a density of 10,000-15,000 cells per well of each 96-well black tissue culture treated microtiter plate, then were grown for 1 hour at 37° C. with 5% CO2/95% air in a humidified incubator to allow cells to attach before compound addition. Compound stocks (100×) were prepared in 96-well V-bottom polypropylene microtiter plates. Five serial (1:2) dilutions were made with anhydrous DMSO at 100× the final concentration used in the assay. The individual wells in compound-containing […] well plates were diluted 1:10 with complete cell culture medium and the 10× (10 μL) stocks were added to 90 μl of cells in each plate to ensure full mixing of stocks with culture media by using a Biomek FX liquid handler with 96-well head. Doxorubicin was used as the control to monitor the behavior of each cell line. Cells were incubated with the compounds for 3 to 4 days before fluorescence and luminescence reading. Test plates were removed from the incubator and washed once in sterile PBS to remove serum containing calcium esterases. Calcein AM (acetoxymethyl ester) reagent was added and the cells were incubated for 30 min at 37° C. Plates were read for emission by using a fluorescein filter (excitation 485 nm, emission 535 nm). An equal volume (30 μL) of Cell Titer-Glo reagent (Promega Corporation, Inc.) was added and incubated for 10 min at room temperature with gentle agitation to lyse the cells. Each plate was re-read for luminescence to confirm the inhibition observed in the fluorescent […] assay as a measure of cell viability. The cancer cell cytotoxicity assays were run in triplicate using ≧5 different drug concentrations, and the data were analyzed to establish statistical significance and a valid IC50 value for inhibition of cell growth, based on ≧2 log differences in drug effect.
(§2) The cancer cell cytotoxicities (determined substantially according to the method of Example 5) of various compounds of the invention and comparative compounds as determined in four to five different human cancer cell lines are shown in Table 1. The structures of the compounds listed are found in FIGS. 2-4.

A549 (NSCLC) cell line [1] = details: footnote 2: data from Langenhan et al. 2005; cited from earlier work
A549 (NSCLC) cell line [2] = assay: Cancer cell cytotoxicity assay (Calcein AM / Cell Titer-Glo), A549; format: cell-based, human; details: NSCLC
Experimental: as §1, §2

[3] = system: SKOV3 (Ovarian) cell line; details: footnote 2: data from Langenhan et al. 2005; cited from earlier work
[4] = system: NCI-H460 (NSCLC) cell line; assay: Cancer cell cytotoxicity assay (Calcein AM / Cell Titer-Glo), NCI-H460; format: cell-based, human; details: NSCLC
Experimental: as §1, §2

[5] = system: NCI-H460 (NSCLC) cell line; details: footnote 2: data from Langenhan et al. 2005; cited from earlier work
[6] = system: HT29 (Colorectal) cell line; assay: Cancer cell cytotoxicity assay (Calcein AM / Cell Titer-Glo), HT29; format: cell-based, human; details: Colorectal
Experimental: as §1, §2

[7] = system: SKOV3 (Ovarian) cell line; assay: Cancer cell cytotoxicity assay (Calcein AM / Cell Titer-Glo), SKOV3; format: cell-based, human; details: Ovarian
Experimental: as §1, §2

[8] = footnote 3: determined at same time as CEN07-117 and -121
[9] = footnote 4: determined at same time as CEN08-177 and -178
[10] = footnote 5: determined at same time as CEN08-193
[11] = footnote 6: determined at same time as CEN08-243 and -244
[12] = footnote 7: determined at same time as CEN08-180

CON(C1CCC2(C)C(CCC3C2CCC2(C)C(C4=CC(=O)OC4)CCC32O)C1)C1OCC(O)C(O)C1O [CEN07-W-102 (5S), reference compound]
pIC50 (H1299 (NSCLC) cell line; assay set not specified): 8.05 | pIC50 (H1299 (NSCLC) cell line; [8]): 6.96 | pIC50 (H1299 (NSCLC) cell line; [9]): 7.70 | pIC50 (H1299 (NSCLC) cell line; [10]): 8.22 | pIC50 (H1299 (NSCLC) cell line; [11]): 7.70 | pIC50 (A549 (NSCLC) cell line [1]): 7.48 | pIC50 (A549 (NSCLC) cell line [2]; [8]): 7.40 | pIC50 (A549 (NSCLC) cell line [2]; [9]): 8.00 | pIC50 (A549 (NSCLC) cell line [2]; [10]): 8.52 | pIC50 (A549 (NSCLC) cell line [2]; [11]): 7.77 | pIC50 (A549 (NSCLC) cell line [2]; [12]): 8.10 | pIC50 [3]: 7.35 | pIC50 [4, 8]: 6.96 | pIC50 [4, 9]: 8.00 | pIC50 [4, 10]: 8.30 | pIC50 [4, 11]: 7.82 | pIC50 [4, 12]: 7.62 | pIC50 [5]: 7.28 | pIC50 ([6]; assay set not specified): 7.70 | pIC50 [6, 8]: 6.92 | pIC50 [6, 10]: 8.15 | pIC50 [6, 12]: 7.48 | pIC50 ([7]; assay set not specified): 6.51 | pIC50 [7, 9]: 7.40 | pIC50 [7, 10]: 7.59 | pIC50 [7, 11]: 7.60 | pIC50 [7, 12]: 7.44
